Values after ≈ are worked out from the molar mass of the structure shown.
Assays:
[1] = design: method as in PMID 24700236; settings: cited from earlier work
[2] = Oral pharmacokinetic study in rats; type: in vivo, Male Wistar rats
Description: Male Wistar rats were used for this study. The Standing Committee of Bioethics Research (SCBR) at Prince Sattam bin Abdulaziz University, Deanship of Scientific Research has granted the animal ethical approval (SCBR-030-2022) for in vivo studies on rats. Twelve rats were divided in two groups. Group-1 for OLA-AqS and Group-II for OLA-NCs. Each animal of the respective groups received OLA-AqS and OLA-NCs individually. Oral route was selected for the administration of all OLA formulations at 25 mg·kg^−1 of body weight equivalent dose of OLA was given orally to all animals. At predetermined time points (0.25, 0.5, 1, 3, 6 and 9 h) approximately 0.5 mL of blood was aspirated through retro orbital plexus from each animal. The samples were collected in heparinized tubes and centrifuged at 6000 rpm for 10 min and at 4 °C to obtain the plasma. Approximately 200 µL supernatant (plasma) was collected and stored at −80 °C till analysis was performed.
Previously reported RP-HPLC method was used for the analysis of OLA in the plasma samples [7, 20]. In brief, the HPLC system (Waters® 1500 Series, Milford, MA, USA) was fitted out with UV-dual absorbance detector (Waters® Model-2489), Binary pump (Waters® Moel-1525), Autosampler (Waters® Model-2707 plus). The HPLC-UV system was monitored and controlled by the “Breeze software”. A C18 Waters symmetry column (150 × 4.6 mm, 5 µm, particle size) was used for the elution of OLA and Paclitaxel (used as internal standard, IS). The mobile phase composed of ammonium acetate buffer (pH was adjusted to 3.5 by Orthophosphoric acid) and Methanol at 50:50 (v/v) was pumped at isocratic mode at the flow rate of 1 mL·min^−1. The UV-detection wavelength was 254 nm (for OLA) and 230 nm (for IS). The column heater temperature was set to 35 °C and the volume of injection was 30 µL.
Protein precipitation method (simple with high recovery) was used for the drug extraction from the collected plasma samples. The calibration curve samples were prepared by pipetting 50 μL of working stock solution of OLA (in methanol) and 20 μL of IS (20 µg/mL) into 140 μL of plasma and the mixture was vortexed for 30 s. Acetonitrile (290 μL) was added into the obtained mixture for protein precipitation, vortexed for 2 min and then centrifuged at 13,500 rpm for 10 min. Approximately 200 µL of the supernatant was collected and 30 µL of the supernatant was injected into HPLC system for the quantification of the drugs in the samples.
The results were represented as mean with standard deviation (± SD), unless otherwise indicated. The statistical analysis was performed using GraphPad Prism: Version-5.1 (GraphPad Software, Inc., San Diego, CA, USA). The pharmacokinetics parameters was calculated by “PK-Solver Software, Nanjing, China using MS-Excel-2013” through the non-compartmental approach. The comparative analysis of the data was accomplished by Student’s t-test and p < 0.05 was considered as statistically significant, unless otherwise indicated.

MCF-7 cells = experiment: MTT or cell proliferation assay; type: cell-based; settings: Homo sapiens, MCF7, 48 h, 48 h of incubation, MTT
Description: The MCF-7 cells were procured from the American Type Cutler Collection (Manassas, VA, USA). Cells were grown in 50 cm^2 tissue culture flasks using “Dulbecco’s Modified Eagle Medium (DMEM) (UFC Biotech, Riyadh, Saudi Arabia)” at 37 °C in an incubator humidified by 5% CO2. The media was accompanied with 10% fetal bovine serum (Alpha Chemika, Mumbai, India), 1% mixture of Penicillin (100 units·mL^−1): Streptomycin (100 µg·mL^−1) by ThermoFischer Scientific, Waltham, MA, USA, Amphotericin-B (250 ngmL^−1) by Gibco® (Grand Island, NY, USA) and 1% of L-glutamine (BioWest, Riverside, MO, USA). The MTT was purchased from Sigma Aldrich, St. Louis, MO, USA. […]
The anticancer activity of pure drug (OLA)-AqS and OLA-NCs-2 against MCF-7 were examined by assessing the viability of the treated cells by MTT assay. […] The assay was done by observing the enzymatic reduction of a water-soluble dye [3-(4,5-dimethylthiazol-2-yl)-2,5-diphenyltetrazolium bromide] into an insoluble formazan, where the quantitation of formazan designates the relative viability of the cells. […] Optical density (OD) was measured at 570 nm using the spectrophotometric microplate reader (Synergy HT, BioTek Instruments, Winooskim, VT, USA). The cell viability (%) was calculated by Equation (4). […] The IC50 values were calculated as Log (inhibitor) versus normalized response on variable slopes through GraphPad Prism V-5.1. […]

P-glycoprotein (Pgp) = test system: P-glycoprotein (Pgp); design: method as in PMID 24700236; settings: cited from earlier work
[3] = Oral pharmacokinetic study in rats; type: in vivo, Male Wistar rats; remark: listed apart in the source
Caspase-3 = Caspase-3 by ELISA in MCF-7 cells; type: cell-based, human; settings: OLA 10 µgmL^−1, vs untreated control
Description: (§1) The p53, Caspase-3 and Caspase-9 activities were measured by ELISA kits following the manufacture’s protocol and reported works. The MCF-7 cells (5 × 10^4 cells/well) were seeded in 96-well plates. The seeded cells were treated with the AqS of OLA-pure and OLA-NCs. The concentration of OLA was kept 10 µgmL^−1, which was approximately near to the IC50 value of the OLA-NCs-2 (9.71 µgmL^−1). The untreated cells were served as control. All the treated cells were allowed to equilibrate at ambient temperature. Approximately 100 µL of p53, Caspase-3 and Caspase-9 reagents were transferred into the respective wells of the plate containing 100 µL of culture media. The plates were covered and stirred for 1–2 min at 500 rpm and then incubated at ambient temperature. After 1 h of incubation the OD was measured at 405 nm wavelength by microplate reader.

Caspase-9 = Caspase-9 by ELISA in MCF-7 cells; type: cell-based, human; settings: OLA 10 µgmL^−1, vs untreated control
Description: as §1

[4] = Saturation solubility of pure OLA and its NCs; type: physicochemical; settings: thermodynamic from solid
Description: The excess amount of pure OLA and NCs in triplicate were added into 1 mL of each solvent in glass vials. The mixtures were vortexed for 30 s and put into an orbital shaking (at 100 stroke per min) water bath (Julabo®, Allentown, PA, USA) maintained at 37 ± 1 °C for 72 h. Thereafter, vials were taken out and kept at room temperature for 24 h to settle down the undissolved drugs. Then, the supernatants were collected, filtered by 0.45 µ filtration unit (Millipore, Molsheim, France), diluted (if needed) and 30 µL was injected into HPLC-UV system for the quantification of the dissolved drugs.

p53 = p53 by ELISA in MCF-7 cells; type: cell-based, human; settings: OLA 10 µgmL^−1, vs untreated control
Description: as §1

[5] = male, Wistar, rat, plasma, single oral dose 25 mg·kg^−1

## O=C(c1cc(Cc2n[nH]c(=O)c3ccccc23)ccc1F)N1CCN(C(=O)C2CC2)CC1 [OLA, Olaparib]
[1]
  Solubility at intestinal fluid pH: 0.16 mg·mL^−1
[2]; [5]
  AUC(0-inf): 913 ± 138 ng·h/mL
  Tmax: 2 h
  half-life: 1.36 ± 0.04 h
[2]; male, Wistar, rat, plasma, single oral dose 25 mg·kg^−1, read-out: MRT0-∞
  MRT inf: 3.37 ± 0.03 h
[2]; male, Wistar, rat, single oral dose 25 mg·kg^−1, plasma
  Cmax: 278 ± 46.5 ng/mL
[2]; single oral dose 25 mg·kg^−1
  AUMC0-∞: 3081.17 ± 471.32 ng·mL^−1·h^2
[2]; single oral dose 25 mg·kg^−1, listed as OLA-Pure
  Cl/F: 6.94 ± 0.96 L/h
[2]; single oral dose 25 mg·kg^−1, listed as OLA-pure
  Cl/F: 6.94 L/h
MCF-7 cells
  IC50: 28.4 µg/mL
P-glycoprotein (Pgp)
  Concentration at which the Pgp-mediated efflux is saturated: > 260 µM
[3]; male, Wistar, rat, plasma, single oral dose 25 mg·kg^−1, read-out: AUC0–12 h
  AUC(0-t): 882 ± 137 ng·h/mL
[3]; oral, undetected in 10 h and 12 h samples
  Last plasma sample in which the drug was detected: up to 8 h
Caspase-3
  Increased activities of Caspase-3 vs control: approximately 4.3 folds
Caspase-9
  Increased expression of Caspase-9 vs control: ~2 folds
[4]; 0.1N HCl with 0.5% Soluplus, 37 °C, aqueous with cosolvent or surfactant or cyclodextrin, in 0.1N HCl (pH 1.2) with 0.5% Soluplus
  solubility: 31.1 ± 3.9 µg/mL (≈ 71.6 µM)
[4]; 0.1N HCl with 0.5% Tween-80, 37 °C, aqueous with cosolvent or surfactant or cyclodextrin, in 0.1N HCl (pH 1.2) with 0.5% Tween-80
  solubility: 12.7 ± 3.9 µg/mL (≈ 29.2 µM)
[4]; 37 °C, simulated gastric fluid, in 0.1N HCl (pH 1.2)
  solubility: 7.1 ± 2.7 µg/mL (≈ 16.3 µM)
[4]; phosphate buffer (PBS) with 0.5% Soluplus, pH 7.4, aqueous with cosolvent or surfactant or cyclodextrin, in PBS with 0.5% Soluplus, 37 °C
  solubility at 72 h: 35.6 ± 7.2 µg/mL (≈ 81.9 µM)
[4]; phosphate buffer (PBS) with 0.5% Tween-80, pH 7.4, aqueous with cosolvent or surfactant or cyclodextrin, in PBS with 0.5% Tween-80, 37 °C
  solubility at 72 h: 14.2 ± 5.1 µg/mL (≈ 32.7 µM)
[4]; phosphate buffer (PBS), pH 7.4, aqueous buffer, in PBS, 37 °C
  solubility at 72 h: 9.3 ± 2.4 µg/mL (≈ 21.4 µM)
p53
  p53 protein expression, times higher than control: 7.2 times
